Data as given in ChEMBL document CHEMBL1144375, “Solid-phase synthesis of naphthylamidines as factor VIIa/tissue factor inhibitors” (Bioorg Med Chem Lett, 2005).

What was measured:
Serine protease 1 = target: T1, Serine protease 1 (Bos taurus, UniProt P00760); experiment: Inhibition constant towards bovine trypsin
T1 sequence (P00760 whole entry): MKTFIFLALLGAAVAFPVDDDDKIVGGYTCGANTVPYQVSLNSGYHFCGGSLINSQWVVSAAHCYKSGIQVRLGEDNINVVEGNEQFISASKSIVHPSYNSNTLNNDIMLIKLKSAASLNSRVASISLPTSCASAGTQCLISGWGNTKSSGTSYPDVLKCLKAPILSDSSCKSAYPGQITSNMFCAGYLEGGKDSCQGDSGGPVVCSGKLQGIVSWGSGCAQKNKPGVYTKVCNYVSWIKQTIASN

Coagulation factor X = Coagulation factor X (Homo sapiens, UniProt P00742); experiment: Inhibition constant towards human coagulation factor X
Coagulation factor VII = target: T2, Coagulation factor VII (Homo sapiens, UniProt P08709); experiment: Inhibition constant towards human coagulation factor VII
T2 sequence (P08709 whole entry): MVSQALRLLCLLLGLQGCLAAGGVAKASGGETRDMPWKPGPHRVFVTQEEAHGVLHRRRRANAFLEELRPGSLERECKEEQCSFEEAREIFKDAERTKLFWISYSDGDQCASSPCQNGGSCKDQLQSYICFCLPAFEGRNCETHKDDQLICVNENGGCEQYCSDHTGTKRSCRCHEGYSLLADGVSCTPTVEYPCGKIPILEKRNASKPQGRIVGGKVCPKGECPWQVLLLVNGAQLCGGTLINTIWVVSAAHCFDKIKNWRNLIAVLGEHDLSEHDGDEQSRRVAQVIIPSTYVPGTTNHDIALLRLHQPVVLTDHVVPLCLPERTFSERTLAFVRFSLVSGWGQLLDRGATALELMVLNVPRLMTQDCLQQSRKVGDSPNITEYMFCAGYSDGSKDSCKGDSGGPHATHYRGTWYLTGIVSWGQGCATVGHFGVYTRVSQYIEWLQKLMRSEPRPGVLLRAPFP

Prothrombin = Prothrombin (Homo sapiens, UniProt P00734); experiment: Inhibition constant towards human thrombin

Chain of Coagulation factor X (P00742 41-179 limits assumed): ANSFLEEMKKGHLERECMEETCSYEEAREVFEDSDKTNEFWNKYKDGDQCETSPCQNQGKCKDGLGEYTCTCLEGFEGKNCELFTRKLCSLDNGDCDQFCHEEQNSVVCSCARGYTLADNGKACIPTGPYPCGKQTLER
Chain of Coagulation factor X (P00742 235-488 limits assumed): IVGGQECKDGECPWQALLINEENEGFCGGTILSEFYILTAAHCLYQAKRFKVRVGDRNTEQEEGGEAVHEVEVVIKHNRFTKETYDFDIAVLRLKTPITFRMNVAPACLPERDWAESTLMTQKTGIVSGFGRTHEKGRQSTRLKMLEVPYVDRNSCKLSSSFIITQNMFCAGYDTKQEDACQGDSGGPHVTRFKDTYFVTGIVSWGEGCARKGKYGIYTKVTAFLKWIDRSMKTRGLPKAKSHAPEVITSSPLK

| SMILES | Ki (Serine protease 1) [nM] | Ki (Coagulation factor X) [nM] | Ki (Coagulation factor VII) [nM] | Ki (Prothrombin) [nM] |
| --- | --- | --- | --- | --- |
| CC(C)CCN(Cc1ccc2ccc(C(=N)N)cc2c1)C(=O)c1ccc2ccccc2c1 | 460 | 512 | 783 | 486 |
| CN1CCCC1CCN(Cc1ccc2ccc(C(=N)N)cc2c1)C(=O)c1cccc2ccccc12 (configuration not stated) | 433 | 111 | 142 | > 5000 |
| N=C(N)c1ccc2ccc(CN(CCc3ccccn3)C(=O)c3cccc4ccccc34)cc2c1 | 299 | 104 | 195 | 4760 |
| N=C(N)c1ccc2ccc(CN(CCCc3ccccc3)C(=O)c3cccc4ccccc34)cc2c1 | 925 | 632 | 207 | 1200 |
| N=C(N)c1ccc2ccc(CN(CCc3cnc[nH]3)C(=O)c3cccc4ccccc34)cc2c1 | 378 | 264 | 305 | > 5000 |
| CN1CCN(CCCN(Cc2ccc3ccc(C(=N)N)cc3c2)C(=O)c2cccc3ccccc23)CC1 | 500 | 136 | 1310 | 500 |
| N=C(N)c1ccc2ccc(CN(CCc3ccc(F)cc3)C(=O)c3cccc4ccccc34)cc2c1 | 501 | 40 | 194 | 1680 |

The remaining compounds from weak to strong by Ki (Serine protease 1), led by results:

| Ki (Serine protease 1) [nM] | Ki (Coagulation factor X) [nM] | Ki (Coagulation factor VII) [nM] | Ki (Prothrombin) [nM] | SMILES |
| --- | --- | --- | --- | --- |
| 1610 | > 5000 | 1010 | > 5000 | CC(C)CC(C(=O)O)N(Cc1ccc2ccc(C(=N)N)cc2c1)C(=O)c1cccc2ccccc12 (single isomer, unassigned) |
| 752 | 731 | 282 | > 5000 | N=C(N)c1ccc2ccc(CN(CCC[n+]3cc[nH]c3)C(=O)c3cccc4ccccc34)cc2c1 |
| 698 | 262 | 93 | 1160 | CC(C)CCN(Cc1ccc2ccc(C(=N)N)cc2c1)C(=O)c1cccc2ccccc12 |
| 378 | 442 | 121 | > 5000 | N=C(N)c1ccc2ccc(CN(CCCN3CCOCC3)C(=O)c3cccc4ccccc34)cc2c1 |
| 367 | 137 | 646 | > 5000 | CC1CCCCN1CCCN(Cc1ccc2ccc(C(=N)N)cc2c1)C(=O)c1cccc2ccccc12 (configuration not stated) |
| 105 | 417 | 133 | 2510 | COc1ccc(CCN(Cc2ccc3ccc(C(=N)N)cc3c2)C(=O)c2cccc3ccccc23)cc1OC |
